Laboratory results: article PMC6519732 (Journal of medicinal chemistry, 2019)

Experiments:
human recombinant HDAC6 = molecular target: T1, human recombinant HDAC6 (Homo sapiens, UniProt Q9UBN7); format: biochemical; details: for LE, HDAC6 (ligand efficiency): from IC50 in place of Kd, T = 310 K; for SF 1/6, selectivity factor for HDAC6 over HDAC1: IC50(HDAC1)/IC50(HDAC6); for HDAC6 inhibition: concentrations up to 25 μM, data not shown
T1 sequence (Q9UBN7 1-1215): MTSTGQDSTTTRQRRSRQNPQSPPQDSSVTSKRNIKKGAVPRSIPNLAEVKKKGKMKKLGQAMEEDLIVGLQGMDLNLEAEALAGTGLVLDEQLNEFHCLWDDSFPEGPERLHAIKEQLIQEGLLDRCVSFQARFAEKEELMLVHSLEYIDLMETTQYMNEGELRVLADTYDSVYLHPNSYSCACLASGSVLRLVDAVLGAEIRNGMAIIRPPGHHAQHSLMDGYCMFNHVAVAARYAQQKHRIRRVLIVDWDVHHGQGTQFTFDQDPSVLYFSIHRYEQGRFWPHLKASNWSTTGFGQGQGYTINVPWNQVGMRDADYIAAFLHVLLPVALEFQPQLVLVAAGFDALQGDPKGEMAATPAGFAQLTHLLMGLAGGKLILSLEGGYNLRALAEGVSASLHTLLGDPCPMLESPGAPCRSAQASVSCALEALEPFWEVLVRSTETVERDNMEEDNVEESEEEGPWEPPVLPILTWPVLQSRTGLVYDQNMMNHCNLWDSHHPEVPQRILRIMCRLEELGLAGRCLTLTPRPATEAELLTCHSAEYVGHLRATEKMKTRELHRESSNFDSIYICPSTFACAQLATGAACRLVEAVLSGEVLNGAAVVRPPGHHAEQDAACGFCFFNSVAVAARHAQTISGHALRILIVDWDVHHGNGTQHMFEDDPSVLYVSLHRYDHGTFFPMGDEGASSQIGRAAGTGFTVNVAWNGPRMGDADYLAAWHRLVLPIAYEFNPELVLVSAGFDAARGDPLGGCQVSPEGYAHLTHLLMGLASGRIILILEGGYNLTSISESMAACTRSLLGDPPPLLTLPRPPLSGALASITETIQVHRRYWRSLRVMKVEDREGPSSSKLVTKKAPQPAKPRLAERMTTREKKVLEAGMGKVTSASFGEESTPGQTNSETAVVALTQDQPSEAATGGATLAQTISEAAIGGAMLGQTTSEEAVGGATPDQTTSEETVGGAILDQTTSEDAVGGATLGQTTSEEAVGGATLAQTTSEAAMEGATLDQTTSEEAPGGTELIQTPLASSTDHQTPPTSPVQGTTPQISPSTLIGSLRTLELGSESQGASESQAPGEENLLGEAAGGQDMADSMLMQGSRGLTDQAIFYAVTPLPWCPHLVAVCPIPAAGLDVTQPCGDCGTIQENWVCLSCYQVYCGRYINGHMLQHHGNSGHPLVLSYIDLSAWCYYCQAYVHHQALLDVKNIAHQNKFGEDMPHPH

human recombinant HDAC1 = human recombinant HDAC1 (Homo sapiens, UniProt Q13547); experiment: In vitro HDAC1 inhibition, fluorogenic ZMAL assay; format: biochemical
Chain of human recombinant HDAC1 (Q13547 whole entry): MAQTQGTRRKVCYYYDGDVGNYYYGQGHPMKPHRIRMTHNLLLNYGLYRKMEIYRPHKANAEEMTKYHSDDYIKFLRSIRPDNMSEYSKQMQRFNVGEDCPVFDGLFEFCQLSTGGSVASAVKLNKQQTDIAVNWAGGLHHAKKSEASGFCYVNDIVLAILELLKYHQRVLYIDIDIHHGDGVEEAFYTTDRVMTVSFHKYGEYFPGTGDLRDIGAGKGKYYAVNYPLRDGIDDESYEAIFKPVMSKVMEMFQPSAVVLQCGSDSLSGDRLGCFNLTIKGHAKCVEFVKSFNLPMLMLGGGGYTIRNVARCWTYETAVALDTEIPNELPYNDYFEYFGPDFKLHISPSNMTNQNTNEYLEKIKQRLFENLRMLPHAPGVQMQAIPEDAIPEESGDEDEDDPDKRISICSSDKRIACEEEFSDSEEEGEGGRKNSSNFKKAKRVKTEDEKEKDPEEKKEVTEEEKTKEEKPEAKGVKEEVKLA

[1] = Metabolic stability in human liver microsomes; format: in vitro ADME; details: for half-life at 2 μM: human, liver microsomes
HepaRG cells = experiment: CellTiter-Blue cell viability assay, HepaRG; details: 24 h of treatment, highest tested concentration (100 μM)
HUH7 cells = details: HUH7, 10 and 100 μM, 72 h
MDA-MB-231 cells = details: MDA-MB-231, 10 and 100 μM, 72 h
T24 cells = details: T24, 10 and 100 μM, 72 h
hHDAC6 = details: cited from earlier work

Compound	LE, HDAC6 (ligand efficiency) (human recombinant HDAC6)	IC50 (human recombinant HDAC1) [µM]	other results
O=C(NO)c1ccc(CN2c3ccccc3Sc3ccc(Cl)cc32)cc1 [Compound 7f, 4-[(2-Chloro-10H-phenothiazin-10-yl)methyl]-N-hydroxybenzamide]	0.43 (kcal/mol)/non-H-Atom	–	–
Cc1nc2c(s1)Sc1ccccc1N2Cc1ccc(C(=O)NO)cc1 [Compound 7o, N-Hydroxy-4-[(2-methyl-4H-benzo[b]thiazolo[4,5-e][1,4]thiazin-4-yl)methyl]benzamide]	0.42 (kcal/mol)/non-H-Atom	5.05 ± 0.75	SF 1/6, selectivity factor for HDAC6 over HDAC1 (human recombinant HDAC6): 136
O=C(NO)c1ccc(CN2c3cccnc3Sc3cccnc32)cc1 [Compound 7l, 4-[(10H-Dipyrido[2,3-b:2’,3’-e][1,4]thiazin-10-yl)methyl]-N-hydroxybenzamide]	0.45 (kcal/mol)/non-H-Atom	3.39 ± 0.23	SF 1/6, selectivity factor for HDAC6 over HDAC1 (human recombinant HDAC6): 242
CN1CCC2=C(C1)N(Cc1ccc(C(=O)NO)cc1)c1ccccc1S2 [Compound 14j, N-Hydroxy-4-[(2-methyl-1,2,3,4-tetrahydro-10H-benzo[b]pyrido[3,4-e][1,4]thiazin-10-yl)methyl]benzamide]	0.41 (kcal/mol)/non-H-Atom	–	–
O=C(NO)c1ccc(CN2c3ccncc3Sc3ccncc32)cc1 [Compound 7m, 4-[(10H-Dipyrido[3,4-b:3’,4’-e][1,4]thiazin-10-yl)methyl]-N-hydroxybenzamide]	0.46 (kcal/mol)/non-H-Atom	0.79 ± 0.14	–
O=C(NO)c1ccc(CN2c3ccccc3Sc3ccccc32)cc1 [Compound 1a, 4-[(10H-Phenothiazin-10-yl)methyl]-N-hydroxybenzamide]	–	–	human liver microsomal stability (in words) [1]: moderate stability; compound remaining ([1]; human liver microsomes, after 40 min incubation): about 77%; half-life at 2 μM [1]: > 40 min; Viability of HepaRG cells (HepaRG cells): not affected
O=C(NO)c1ccc(CN2c3ccccc3Sc3nccnc32)cc1 [Compound 7k, 4-[(10H-Benzo[b]pyrazino[2,3-e][1,4]thiazin-10-yl)methyl]-N-hydroxybenzamide]	0.44 (kcal/mol)/non-H-Atom	3.84 ± 0.13	SF 1/6, selectivity factor for HDAC6 over HDAC1 (human recombinant HDAC6): 226
O=C(NO)c1ccc(CN2c3ccccc3Sc3ccncc32)cc1 [Compound 7j, 4-[(10H-Benzo[b]pyrido[3,4-e][1,4]thiazin-10-yl)methyl]-N-hydroxybenzamide]	0.46 (kcal/mol)/non-H-Atom	1.25 ± 0.01	SF 1/6, selectivity factor for HDAC6 over HDAC1 (human recombinant HDAC6): 179
O=C(NO)c1ccc(CN2c3ccccc3Sc3cc(Cl)nnc32)cc1 [Compound 7q, 4-[(3-Chloro-10H-benzo[b]pyridazino[3,4-e][1,4]thiazin-10-yl)methyl]-N-hydroxybenzamide]	0.42 (kcal/mol)/non-H-Atom	1.08 ± 0.04	–
O=C(NO)c1ccc(CN2c3ccccc3Sc3cccnc32)cc1 [Compound 7i, 4-[(10H-Benzo[b]pyrido[2,3-e][1,4]thiazin-10-yl)methyl]-N-hydroxybenzamide]	–	–	human liver microsomal stability (in words) [1]: metabolically quite stable; half-life at 2 μM [1]: > 40 min; effect on proliferation (in words) (HUH7 cells): inhibited proliferation; effect on proliferation (in words) (MDA-MB-231 cells): inhibited proliferation; effect on proliferation (in words) (T24 cells): inhibited proliferation; Viability of HepaRG cells (HepaRG cells): not affected
CCCCN(Cc1ccc(C(=O)NO)cc1)C(=O)Nc1ccccc1 [Nexturastat A]	–	–	selectivity over HDAC1 (hHDAC6): ~ 600 fold
O=C(NO)c1ccc(CCN2c3ccccc3Sc3ccccc32)cc1 [Compound 22, 4-[2-(10H-Phenothiazin-10-yl)ethyl]-N-hydroxybenzamide]	0.37 (kcal/mol)/non-H-Atom	11.7 ± 2.61	SF 1/6, selectivity factor for HDAC6 over HDAC1 (human recombinant HDAC6): 86
O=C(O)c1ccc(CN2c3ccncc3Sc3ncccc32)cc1 [Compound 5n, 4-[(5H-Dipyrido[2,3-b:4’,3’-e][1,4]thiazin-5-yl)methyl]benzoic acid]	–	–	activity on HDAC6 (in words) (human recombinant HDAC6): inactive; HDAC6 inhibition (human recombinant HDAC6): did not show noteworthy HDAC6 inhibition
O=C(NO)c1ccc(CN2N=C(Cl)C=C3Sc4ccccc4N=C32)cc1 [Compound 10q, 4-[(3-Chloro-1H-benzo[b]pyridazino[3,4-e][1,4]thiazin-1-yl)methyl]-N-hydroxybenzamide]	0.38 (kcal/mol)/non-H-Atom	4.58 ± 0.73	–
COc1ccc2c(c1)N(Cc1ccc(C(=O)NO)cc1)c1ccccc1S2 [Compound 7g, N-Hydroxy-4-[(2-methoxy-10H-phenothiazin-10-yl)methyl]benzamide]	0.42 (kcal/mol)/non-H-Atom	–	–
Cn1c(=O)c2c(ncn2C)n(C)c1=O [Caffeine, reference compound]	–	–	half-life at 2 μM [1]: > 40 min
O=C(NO)c1ccc(CN2c3ccccc3[S+]([O-])c3ccccc32)cc1 [Compound 7e, N-Hydroxy-4-[(5-oxido-10H-phenothiazin-10-yl)methyl]benzamide]	0.39 (kcal/mol)/non-H-Atom	–	–
O=C(NO)c1ccc(N2c3ccccc3Sc3ccccc32)cc1 [Compound 18, N-Hydroxy-4-(10H-phenothiazin-10-yl)benzamide]	0.33 (kcal/mol)/non-H-Atom	5.87 ± 0.71	SF 1/6, selectivity factor for HDAC6 over HDAC1 (human recombinant HDAC6): 2
O=C(O)c1ccc(CN2c3ccccc3Sc3ccccc32)cc1 [Compound 5a, 4-[(10H-Phenothiazin-10-yl)methyl]benzoic acid]	–	–	activity on HDAC6 (in words) (human recombinant HDAC6): inactive; HDAC6 inhibition (human recombinant HDAC6): did not show noteworthy HDAC6 inhibition
O=C(NO)c1ccc(CN2c3ccccc3Sc3ccnnc32)cc1 [Compound 7p, 4-[(10H-Benzo[b]pyridazino[3,4-e][1,4]thiazin-10-yl)methyl]-N-hydroxybenzamide]	0.45 (kcal/mol)/non-H-Atom	1.06 ± 0.08	–
O=C(NO)c1ccc(CN2c3ccccc3Sc3cccc(Cl)c32)cc1 [Compound 7c, 4-[(1-Chloro-10H-phenothiazin-10-yl)methyl]-N-hydroxybenzamide]	0.43 (kcal/mol)/non-H-Atom	–	–
CN1CCc2c(n(Cc3ccc(C(=O)NO)cc3)c3ccccc23)C1 [Regioisomer of Tubastatin]	–	–	SF 1/6, selectivity factor for HDAC6 over HDAC1 (hHDAC6; from published IC50 values): 3700
O=C(NO)c1ccc(CC(=O)N(CCO)c2ccccc2)cc1 [HPOB, N-hydroxy-4-(2-[(2-hydroxyethyl)(phenyl)amino]-2-oxoethyl)benzamide]	–	–	selectivity over HDAC1 (hHDAC6): ~ 50 fold
O=C(NO)c1ccc(CN2N=CC=C3Sc4ccccc4N=C32)cc1 [Compound 10p, 4-[(1H-Benzo[b]pyridazino[3,4-e][1,4]thiazin-1-yl)methyl]-N-hydroxybenzamide]	0.44 (kcal/mol)/non-H-Atom	0.75 ± 0.04	–
O=C(NO)c1ccc(CN2c3ccccc3Sc3ccc(C(F)(F)F)cc32)cc1 [Compound 7d, N-Hydroxy-4-{[2-(trifluoromethyl)-10H-phenothiazin-10-yl]methyl}benzamide]	0.37 (kcal/mol)/non-H-Atom	–	–
CCSc1ccc2c(c1)N(Cc1ccc(C(=O)NO)cc1)c1ccccc1S2 [Compound 7h, 4-{[2-(Ethylthio)-10H-phenothiazin-10-yl]methyl}-N-hydroxybenzamide]	0.38 (kcal/mol)/non-H-Atom	–	–
CON(C)C(=O)c1ccc(CN2c3ccccc3Sc3ccccc32)cc1 [Compound 23, 4-[(10H-Phenothiazin-10-yl)methyl]-N-methoxy-N-methylbenzamide]	–	–	activity on HDAC1 (in words) (human recombinant HDAC1): completely inactive; activity on HDAC6 (in words) (human recombinant HDAC6): completely inactive
O=C(CCCCCCNC(=O)c1cnc(N(c2ccccc2)c2ccccc2)nc1)NO [Ricolinostat]	–	–	selectivity for HDAC6 relative to class I HDACs (hHDAC6; introduction, literature statement): at least 10 fold
